Experimental data from US20220387433A1, “TYPE V PHOSPHODIESTERASE INHIBITOR COMPOSITIONS, METHODS OF MAKING THEM AND METHODS OF USING THEM IN PREVENTING OR TREATING ELEVATED PULMONARY VASCULAR PRESSURE OR PULMONARY HEMORRHAGES” (American Regent, Inc., priority 2019, published 2022).

How the values were obtained:
exercising horses = experiment: Simulated race test (SRT) on high-speed treadmill; assay type: in vivo
mature, healthy horses = experiment: Twenty-four week (6-month) target animal safety (TAS) study; assay type: in vivo
Protocol: A twenty-four week (6-month) target animal safety (TAS) study was conducted to evaluate the safety of E-4021 (EIPHISOL®) in mature, healthy horses. The study was designed with 4 treatment groups of eight horses (two geldings, two stallions and four mares) in each group. Treatment groups included a Control (Group I: Isotonic saline at a volume equivalent to the largest volume given in the 5× (Group IV); 1× (Group II: 0.125 mg E4021 per pound body weight); 3× (Group III: 0.375 mg E4021 per pound body weight; and 5× (Group IV: 0.625 mg E4021 per pound body weight). Treatment groups were dosed intravenously alternating between the left and right jugular vein once every 7 days for 25 doses.
Breeds represented in this study included Thoroughbred, Quarter Horse, Paint, Arabian, and Grade. The overall age ranged from 3 to 17 years, with a mean of 7.6±4.49 years. The majority of the horses were Thoroughbred (59.4%).
Physical Examinations and Post-Dose Observations: Post-dose observations were conducted after every treatment to detect any acute abnormalities at 10-, 30-, and 60-minute intervals. […] As all groups (including the controls) recorded this finding (Table I), it is presumed that a factor other than the test article was responsible.

horses = experiment: Target Animal Safety (TAS) study / toxicity of formulations in horses; assay type: in vivo; conditions: E-4021 containing meglumine, compared to E-4021 containing propylene glycol
Text: The drug product vehicle contains about 35-45 wt % alcohol, 46 wt % propylene glycol and 10 wt % WFI. […] Test doses (in horses) with the vehicle confirmed that the dose toxicity was due to the vehicle. More specifically, propylene glycol was believed to be the cause of toxicity.

[1] = Pharmacokinetic study, plasma and urine concentrations; assay type: in vivo, horses
Protocol: A pharmacokinetic (PK) study was conducted in six horses, namely three mares, two geldings and one stallion. The study measured plasma and urine concentrations of E-4021 (EIPHISOL®) after IV administration of 100 mg of E-4021 per horse. Plasma samples were collected pretreatment and then at 10, 20 and 30 minutes and 1, 1.5, 2, 2.5, 3, 3.5, 4, 4.5, 5, 5.5, 6, 8, 12, 17, 24 and 30 hours post administration. […] The mean area under the concentration-time curve extrapolated to infinity (AUC0-∞) was 217±83.5 hr*ng/mL. The mean volume of distribution (V) was 6.06±3.99 L/kg.
Urine was collected for assaying E-4021 during four intervals: (1) a pre-dose sample collected from approximately −24 hours through 0 hours, (2) a 0 hour to 12 hour post-dose sample, (3) a 12 hour to 24 hour post-dose sample, and, (4) a 24 hour to 36 hour-post dose sample. There was wide variability in the concentration of E-4021 measured in urine, with maximum concentration ranging from 130-974 ng/mL. […] E-4021 concentration in urine remained above the quantitation limit (3 ng/mL) for four of the six horses at 36 hours post-dose.

[2] = 100 mg (15005, meglumine) 90 min prior to SRT
[3] = 100 mg (16006, meglumine), 90 min., 4 hrs., 24 hrs. and 48 hrs. post-injection
[4] = males in Group II (1×) and Group III (3×)
[5] = males in Group III (3×) and Group IV (5×)

sodium 1-[6-chloro-4-(3,4-methylenedioxybenzyl)-aminoquinazolin-2-yl]piperidine-4-carboxylate sesquihydrate [E-4021]
Oxygen uptake compared to control (exercising horses; [2]): not significantly different
PAsO2 compared to control (exercising horses; [2]): not significantly different
Plasma lactate compared to control (exercising horses; [2]): not significantly different
Duration of pulmonary artery pressure reduction effect (exercising horses; 100 mg (16006, containing meglumine), post-injection for SRT): at least 24 hours
Oxygen uptake compared to control (exercising horses; [3]): not significantly different
PAsO2 compared to control (exercising horses; [3]): not significantly different
Plasma lactate compared to control (exercising horses; [3]): not significantly different
PA pressure during exercise, comparison of doses and times (exercising horses; 100 mg dose given 90 minutes prior to exercise, propylene glycol formulation, P<0.05): lowest PA pressure
Pulmonary artery pressures during intense exercise (exercising horses; IV, propylene glycol formulation of Table 1, Phase II and III, most apparent at 2-minute point of high intensity run): substantially and significantly lower
Effect on VO2 (exercising horses; SRTs in Phase II and Phase III): no effect
Pulmonary artery pressure after exercise at 48 hours (exercising horses; about 100 mg E-4021 containing meglumine (FIG. 21)): lower than the control
Pulmonary artery pressure compared to control (exercising horses; single dose 100 mg (15005, meglumine formulation of Table 3) 90 minutes prior to SRT): reduces
Visual findings ataxia/dragging toes or behavioral/sedation, counted once per horse per group (mature, healthy horses; 1X, PE Day 0): 6
Visual findings ataxia/dragging toes or behavioral/sedation, counted once per horse per group (mature, healthy horses; 1X, PE Day 28): 4
Visual findings ataxia/dragging toes or behavioral/sedation, counted once per horse per group (mature, healthy horses; 1X, PE Day 56): 2
Visual findings ataxia/dragging toes or behavioral/sedation, counted once per horse per group (mature, healthy horses; 1X, PE Day 84): 1
Visual findings ataxia/dragging toes or behavioral/sedation, counted once per horse per group (mature, healthy horses; 1X, PE Day 112): 1
Visual findings ataxia/dragging toes or behavioral/sedation, counted once per horse per group (mature, healthy horses; 1X, PE Day 140): 1
Visual findings ataxia/dragging toes or behavioral/sedation, counted once per horse per group (mature, healthy horses; 1X, PE Day 168): 1
Physical examination findings, treatment-related (mature, healthy horses; 1× and 3×): no major abnormal physical examination findings
Visual findings ataxia/dragging toes or behavioral/sedation, counted once per horse per group (mature, healthy horses; 3X, PE Day 0): 2
Visual findings ataxia/dragging toes or behavioral/sedation, counted once per horse per group (mature, healthy horses; 3X, PE Day 28): 0
Visual findings ataxia/dragging toes or behavioral/sedation, counted once per horse per group (mature, healthy horses; 3X, PE Day 56): 1
Visual findings ataxia/dragging toes or behavioral/sedation, counted once per horse per group (mature, healthy horses; 3X, PE Day 84): 0
Visual findings ataxia/dragging toes or behavioral/sedation, counted once per horse per group (mature, healthy horses; 3X, PE Day 112): 0
Visual findings ataxia/dragging toes or behavioral/sedation, counted once per horse per group (mature, healthy horses; 3X, PE Day 140): 1
Visual findings ataxia/dragging toes or behavioral/sedation, counted once per horse per group (mature, healthy horses; 3X, PE Day 168): 0
Visual findings ataxia/dragging toes or behavioral/sedation, counted once per horse per group (mature, healthy horses; 5X, PE Day 0): 6
Visual findings ataxia/dragging toes or behavioral/sedation, counted once per horse per group (mature, healthy horses; 5X, PE Day 28): 4
Visual findings ataxia/dragging toes or behavioral/sedation, counted once per horse per group (mature, healthy horses; 5X, PE Day 56): 3
Visual findings ataxia/dragging toes or behavioral/sedation, counted once per horse per group (mature, healthy horses; 5X, PE Day 84): 4
Visual findings ataxia/dragging toes or behavioral/sedation, counted once per horse per group (mature, healthy horses; 5X, PE Day 112): 2
Visual findings ataxia/dragging toes or behavioral/sedation, counted once per horse per group (mature, healthy horses; 5X, PE Day 140): 2
Visual findings ataxia/dragging toes or behavioral/sedation, counted once per horse per group (mature, healthy horses; 5X, PE Day 168): 2
Blood urea nitrogen (BUN) vs Group I (Control) (mature, healthy horses; Day 140 for Group II (1×) and Day 154 for Group III (3×)): significantly higher
MCH vs Group I (Control) (mature, healthy horses; Group II (1×) and Group IV (5×)): no significant differences
Direct bilirubin vs Group I (Control) (mature, healthy horses; Group II (1×), overall): significantly lower
Erythrocytes vs Group I (Control) (mature, healthy horses; Group II (1×), overall): significantly lower
Hematocrit vs Group I (Control) (mature, healthy horses; Group II (1×), overall): significantly lower
Hemoglobin vs Group I (Control) (mature, healthy horses; Group II (1×), overall): significantly lower
MCHC vs Group I (Control) (mature, healthy horses; Group II (1×), Days 14, 70, and 154): significantly higher
Leukocytes vs Group I (Control), group-by-time (mature, healthy horses; Group II (1×), Days 14 and 154): significantly lower
Glucose vs Group I (Control) (mature, healthy horses; Group II (1×), Days 28, 42, 56, 70, and 140): significantly lower
APTT vs Group I (Control) (mature, healthy horses; Group II (1×), Days 56, 140, and 168): significantly higher
Fibrinogen vs Group I (Control) (mature, healthy horses; Group III (3×), overall): significantly lower
MCHC vs Group I (Control) (mature, healthy horses; Group III (3×), Day 0): significantly lower
MCH vs Group I (Control) (mature, healthy horses; Group III (3×), Day 56): significantly higher
APTT vs Group I (Control) (mature, healthy horses; Group III (3×), Days 28, 56, 98, 140, and 168): significantly higher
Leukocytes vs Group I (Control), group-by-time (mature, healthy horses; Group III (3×), Days 84, 98, 112, 140, and 168): significantly higher
Leukocytes vs Group I (Control), group-by-time (mature, healthy horses; Group IV (5×)): no significant differences
APTT vs Group I (Control) (mature, healthy horses; Group IV (5×), Day 84): significantly lower
Blood urea nitrogen (BUN) vs Group I (Control) (mature, healthy horses; Group IV (5×), Days 28, 42, 84, and 112): significantly lower
Glucose vs Group I (Control) (mature, healthy horses; Group IV (5×), Days 28, 84, 140, and 168): significantly lower
APTT vs Group I (Control) (mature, healthy horses; Group IV (5×), Days 56, 70, and 126): significantly higher
MCHC vs Group I (Control) (mature, healthy horses; Group IV (5×), Days 98, 112, and 154): significantly higher
Physical examination findings at and immediately after dosing (mature, healthy horses; Group IV (5×), also recorded in controls, not dose related, not considered treatment related): transient locomotion (ataxia/dragging toes), or neurodepressant type effects (behavioral/sedation)
Microscopic findings at the injection site(s) (mature, healthy horses; IV jugular once every 7 days for 25 doses, attributed to minor trauma of injection procedure): minimal fibrosis of the dermis or vein, and minimal degeneration and necrosis of the underlying skeletal muscle
Urinalysis findings (mature, healthy horses; all groups): did not appear to be any indication of abnormal urinalysis findings
Bone marrow smears (mature, healthy horses; control and test-article treated horses, no dose relationship or correlation with decreased platelet counts on Day 168): low incidence of decreased megakaryocytes
Leukocytes vs Group I (Control), group-by-sex (mature, healthy horses; female horses in Group III (3×) and Group IV (5×)): significantly higher
Globulin vs Group I (Control) (mature, healthy horses; females in Group II (1×)): significantly higher
Albumin vs Group I (Control) (mature, healthy horses; females in Group II (1×) and Group III (3×)): significantly lower
Sorbitol dehydrogenase vs Group I (Control) (mature, healthy horses; females in Group II (1×) and Group IV (5×)): significantly higher
Lymphocytes/leukocytes vs control (mature, healthy horses; females, all treatment groups): no significant differences
Magnesium vs control (mature, healthy horses; females, all treatment groups): no significant difference
Neutrophils/leukocytes vs control (mature, healthy horses; females, all treatment groups): no significant differences
Macroscopic findings limited to the injection site (mature, healthy horses; in vivo): no macroscopic findings
Microscopic findings: mandibular salivary glands, related to test article (mature, healthy horses; males given 1× and 3×, limited number examined): no microscopic findings
Liver to brain weight ratio (%) compared to control males (mature, healthy horses; males given the 3× dose, p=0.033, small magnitude, no dose response): statistically higher
Mean liver to body weight ratio (%) compared to control males (mature, healthy horses; males given the 3× dose, p=0.064, small magnitude, no dose response): statistically higher
Leukocytes vs Group I (Control), group-by-sex (mature, healthy horses; males in Group II (1×)): significantly lower
Albumin vs Group I (Control) (mature, healthy horses; [4]): significantly higher
Sorbitol dehydrogenase vs Group I (Control) (mature, healthy horses; [4]): significantly higher
Globulin vs Group I (Control) (mature, healthy horses; [5]): significantly lower
Lymphocytes/leukocytes vs Group I (Control) (mature, healthy horses; [5]): significantly higher
Magnesium vs Group I (Control) (mature, healthy horses; males in Group IV (5×)): significantly lower
Neutrophils/leukocytes vs Group I (Control) (mature, healthy horses; males in Group IV (5×)): significantly lower
Testicular changes, relation to dose (mature, healthy horses; most consistent with spontaneous background findings): did not show evidence of a dose response
Microscopic findings: testes (mature, healthy horses; often with mononuclear cell infiltration and/or Leydig cell pigment accumulation, not in the single control male): Minimal seminiferous tubule degeneration
Adverse event of abdominal colic (mature, healthy horses; one horse Group II (1×) Day 51, one horse Control Day 54): did not appear to be associated with test article administration
Macroscopic observations at the end of dosing (mature, healthy horses; previous trauma, infectious diseases, degenerative/aging changes or euthanasia artifact): attributed to spontaneous background alterations
Fecal analysis findings (mature, healthy horses; two horses in Group III (3×) at Day 83, other groups normal): abnormal intestinal mucosa
Renal toxicity or blood in the urine (horses): did not have renal toxicity or blood in the urine
Mean clearance (CL) ([1]; IV 100 mg per horse): 1.17 ± 0.690 L/h/kg
Mean volume of distribution (V) ([1]; IV 100 mg per horse): 6.06 ± 3.99 L/kg
Maximum concentration in urine ([1]; IV 100 mg per horse, range over six horses): 130 to 974 ng/mL
Concentration in urine at 36 hours post-dose ([1]; above quantitation limit for four of the six horses): > 3 ng/mL
Collection interval of maximum urine concentration ([1]; all six horses): 12-hour post-dose collection
Mean Tmax ([1]; plasma, IV 100 mg per horse): 11.7 ± 1.2 min
Mean area under the concentration-time curve extrapolated to infinity (AUC0-∞) ([1]; plasma, IV 100 mg per horse): 217 ± 83.5 ng·h/mL
Mean elimination half-life (T½) ([1]; plasma, IV 100 mg per horse): 4.42 ± 2.91 h
Mean maximum concentration (Cmax) ±SD ([1]; plasma, IV 100 mg per horse, six horses): 295 ± 118 ng/mL
